From ChEMBL document CHEMBL1201862, “PubChem BioAssay data set” (2004)
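Protocol summary: plate cells (96-well), add compound at 5 concentrations, incubate 48 h, interpolate endpoints linearly. GI50 marks 50% less growth.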 Activity calls are given as the source filed them. Rule as the data show it: active = GI50 up to about 1.1 µM and inactive = higher.

Legend:
Experiment in all cases: NCI-60 cell line screen, 48 h
[1] = test system: 786-0
[2] = test system: A498
[3] = test system: A549
[4] = test system: ACHN
[5] = test system: BT-549
[6] = test system: CAKI-1
[7] = test system: CCRF-CEM
[8] = test system: COLO 205
[9] = test system: DU-145
[10] = test system: EKVX
[11] = test system: HCC 2998
[12] = test system: HCT-116
[13] = test system: HCT-15
[14] = test system: HL-60
[15] = test system: HOP-62
[16] = test system: HOP-92
[17] = test system: HT-29
[18] = test system: Hs-578T
[19] = test system: IGROV-1
[20] = test system: K562
[21] = test system: KM12
[22] = test system: LOX IMVI
[23] = test system: M14
[24] = test system: MCF7
[25] = test system: MDA-MB-231
[26] = test system: MDA-MB-435
[27] = test system: MDA-N
[28] = test system: MOLT-4
[29] = test system: Malme-3M
[30] = test system: NCI-H226
[31] = test system: NCI-H23
[32] = test system: NCI-H460
[33] = test system: NCI-H522
[34] = test system: NCI/ADR-RES
[35] = test system: OVCAR-3
[36] = test system: OVCAR-4
[37] = test system: OVCAR-5
[38] = test system: OVCAR-8
[39] = test system: PC-3
[40] = test system: RPMI-8226
[41] = test system: RXF 393
[42] = test system: SF-268
[43] = test system: SF-295
[44] = test system: SF-539
[45] = test system: SK-MEL-28
[46] = test system: SK-MEL-2
[47] = test system: SK-MEL-5
[48] = test system: SK-OV-3
[49] = test system: SN12C
[50] = test system: SNB-19
[51] = test system: SNB-75
[52] = test system: SR
[53] = test system: SW-620
[54] = test system: T47D
[55] = test system: TK-10
[56] = test system: U-251
[57] = test system: UACC-257
[58] = test system: UACC-62
[59] = test system: UO-31

CN1Cc2c(ccc3c2OCO3)[C@@H]2[C@H](O)Cc3cc4c(cc3[C@@H]21)OCO4
GI50 [1]: 4.09 µM (inactive)
GI50 [2]: 2.17 µM (inactive)
GI50 [3]: 4.15 µM (inactive)
GI50 [4]: 11 µM (inactive)
GI50 [5]: 2.55 µM (inactive)
GI50 [6]: 4.89 µM (inactive)
GI50 [7]: 2.82 µM (inactive)
GI50 [8]: 2.2 µM (inactive)
GI50 [9]: 4.4 µM (inactive)
GI50 [10]: 4.51 µM (inactive)
GI50 [11]: 2.11 µM (inactive)
GI50 [12]: 3.4 µM (inactive)
GI50 [13]: 2.02 µM
GI50 [14]: 1.46 µM (inactive)
GI50 [15]: 3.09 µM (inactive)
GI50 [16]: 46.5 µM (inactive)
GI50 [17]: 2.14 µM (inactive)
GI50 [18]: 3.59 µM (inactive)
GI50 [19]: 3.87 µM (inactive)
GI50 [20]: 2.61 µM (inactive)
GI50 [21]: 2.48 µM (inactive)
GI50 [22]: 4.51 µM (inactive)
GI50 [23]: 2.2 µM (inactive)
GI50 [24]: 2.11 µM (inactive)
GI50 [25]: 3.29 µM (inactive)
GI50 [26]: 0.52 µM (active)
GI50 [27]: 0.435 µM (active)
GI50 [28]: 3.08 µM (inactive)
GI50 [29]: 4.63 µM (inactive)
GI50 [30]: 3.01 µM (inactive)
GI50 [31]: 3.31 µM (inactive)
GI50 [32]: 3.01 µM (inactive)
GI50 [33]: 2.92 µM (inactive)
GI50 [34]: 2.35 µM (inactive)
GI50 [35]: 2.2 µM (inactive)
GI50 [36]: > 86.7 µM (inactive)
GI50 [37]: 12.1 µM (inactive)
GI50 [38]: 3.62 µM (inactive)
GI50 [39]: 2.66 µM (inactive)
GI50 [40]: 4.39 µM (inactive)
GI50 [41]: 2.72 µM (inactive)
GI50 [42]: 4.82 µM (inactive)
GI50 [43]: 2.14 µM (inactive)
GI50 [44]: 2.07 µM (inactive)
GI50 [45]: 4.98 µM (inactive)
GI50 [46]: 2.68 µM (inactive)
GI50 [47]: 1.41 µM (inactive)
GI50 [48]: 3.16 µM (inactive)
GI50 [49]: 5.06 µM (inactive)
GI50 [50]: 3.41 µM (inactive)
GI50 [51]: 2.62 µM (inactive)
GI50 [52]: 4.15 µM (inactive)
GI50 [53]: 3.62 µM (inactive)
GI50 [54]: 9.23 µM (inactive)
GI50 [55]: 5.46 µM (inactive)
GI50 [56]: 3.19 µM (inactive)
GI50 [57]: 5.26 µM (inactive)
GI50 [58]: 3.05 µM (inactive)
GI50 [59]: 6.28 µM (inactive)

COc1ccc(C2C3=C(COC3=O)OC(C)(C)Oc3cc4c(cc32)OCO4)cc1 (configuration not stated)
GI50 [1]: 39.4 µM (inactive)
GI50 [2]: 22.8 µM (inactive)
GI50 [3]: 35.6 µM (inactive)
GI50 [4]: 40 µM (inactive)
GI50 [5]: 16.9 µM (inactive)
GI50 [6]: 24.1 µM (inactive)
GI50 [7]: 22.4 µM (inactive)
GI50 [8]: 16.1 µM (inactive)
GI50 [9]: 32.5 µM (inactive)
GI50 [10]: 35.5 µM (inactive)
GI50 [11]: 40.5 µM (inactive)
GI50 [12]: 25.4 µM (inactive)
GI50 [13]: 23.7 µM
GI50 [14]: 12 µM (inactive)
GI50 [15]: 23.6 µM (inactive)
GI50 [16]: 11.8 µM (inactive)
GI50 [17]: 24.4 µM (inactive)
GI50 [18]: 27.4 µM (inactive)
GI50 [19]: 29.3 µM (inactive)
GI50 [20]: 5.13 µM (inactive)
GI50 [21]: 8.81 µM (inactive)
GI50 [22]: 26.2 µM (inactive)
GI50 [23]: 24.2 µM (inactive)
GI50 [24]: > 64.4 µM (inactive)
GI50 [25]: 18.6 µM (inactive)
GI50 [26]: 3.51 µM (inactive)
GI50 [27]: 2.96 µM (inactive)
GI50 [28]: 23.3 µM (inactive)
GI50 [29]: 17.7 µM (inactive)
GI50 [30]: > 55.3 µM (inactive)
GI50 [31]: 34.4 µM (inactive)
GI50 [32]: 26.7 µM (inactive)
GI50 [33]: 17.4 µM (inactive)
GI50 [34]: 18.5 µM (inactive)
GI50 [35]: 36.6 µM (inactive)
GI50 [36]: 33.9 µM (inactive)
GI50 [37]: 56.8 µM (inactive)
GI50 [38]: 55.8 µM (inactive)
GI50 [39]: 15.1 µM (inactive)
GI50 [40]: 34.1 µM (inactive)
GI50 [41]: 36.6 µM (inactive)
GI50 [42]: 44.6 µM (inactive)
GI50 [43]: 35.2 µM (inactive)
GI50 [44]: 24.2 µM (inactive)
GI50 [45]: 43.1 µM (inactive)
GI50 [46]: 37.8 µM (inactive)
GI50 [47]: 20.4 µM (inactive)
GI50 [48]: 50.1 µM (inactive)
GI50 [49]: 37 µM (inactive)
GI50 [50]: 45.3 µM (inactive)
GI50 [51]: 9.46 µM (inactive)
GI50 [52]: 43.1 µM (inactive)
GI50 [53]: 21.8 µM (inactive)
GI50 [54]: 26.3 µM (inactive)
GI50 [55]: 43.5 µM (inactive)
GI50 [56]: 31.8 µM (inactive)
GI50 [57]: 38.3 µM (inactive)
GI50 [58]: 25.5 µM (inactive)
GI50 [59]: 28.8 µM (inactive)

C/C(=N/NC(=S)N1CCCCC1)c1ccccc1O
GI50 [1]: > 31.6 µM (inactive)
GI50 [2]: > 100 µM (inactive)
GI50 [3]: > 31.6 µM (inactive)
GI50 [4]: > 31.6 µM (inactive)
GI50 [5]: > 100 µM (inactive)
GI50 [6]: > 31.6 µM (inactive)
GI50 [7]: 21.7 µM (inactive)
GI50 [8]: 23.4 µM (inactive)
GI50 [9]: > 31.6 µM (inactive)
GI50 [10]: 29.9 µM (inactive)
GI50 [11]: > 31.6 µM (inactive)
GI50 [12]: > 10 µM (inactive)
GI50 [13]: > 31.6 µM
GI50 [14]: > 31.6 µM (inactive)
GI50 [15]: > 100 µM (inactive)
GI50 [16]: > 31.6 µM (inactive)
GI50 [17]: 23.1 µM (inactive)
GI50 [18]: 20.1 µM (inactive)
GI50 [19]: > 41.2 µM (inactive)
GI50 [20]: 22.8 µM (inactive)
GI50 [21]: 26.1 µM (inactive)
GI50 [22]: > 31.6 µM (inactive)
GI50 [23]: > 31.6 µM (inactive)
GI50 [24]: 14.3 µM (inactive)
GI50 [25]: > 100 µM (inactive)
GI50 [26]: > 31.6 µM (inactive)
GI50 [27]: > 31.6 µM (inactive)
GI50 [28]: > 31.6 µM (inactive)
GI50 [29]: > 31.6 µM (inactive)
GI50 [30]: > 31.6 µM (inactive)
GI50 [31]: > 31.6 µM (inactive)
GI50 [32]: 22.6 µM (inactive)
GI50 [33]: 26.5 µM (inactive)
GI50 [34]: 28.2 µM (inactive)
GI50 [35]: 16.4 µM (inactive)
GI50 [36]: > 31.6 µM (inactive)
GI50 [37]: > 31.6 µM (inactive)
GI50 [38]: > 31.6 µM (inactive)
GI50 [39]: 28.8 µM (inactive)
GI50 [40]: 13.6 µM (inactive)
GI50 [41]: > 31.6 µM (inactive)
GI50 [42]: 21.5 µM (inactive)
GI50 [43]: > 31.6 µM (inactive)
GI50 [44]: > 100 µM (inactive)
GI50 [45]: > 31.6 µM (inactive)
GI50 [46]: > 31.6 µM (inactive)
GI50 [47]: 60.8 µM (inactive)
GI50 [48]: > 31.6 µM (inactive)
GI50 [49]: > 31.6 µM (inactive)
GI50 [50]: > 31.6 µM (inactive)
GI50 [51]: > 10 µM (inactive)
GI50 [52]: > 10 µM (inactive)
GI50 [53]: > 31.6 µM (inactive)
GI50 [54]: 8.26 µM (inactive)
GI50 [55]: > 31.6 µM (inactive)
GI50 [56]: > 31.6 µM (inactive)
GI50 [57]: > 31.6 µM (inactive)
GI50 [58]: > 31.6 µM (inactive)
GI50 [59]: > 31.6 µM (inactive)
